Among the data in the NIST ThermoML archive (doi:10.1016/j.fluid.2014.11.020) are activity coefficient values, retold here.

A short description of this data set: activity coefficient (dimensionless); of the first substance listed, at infinite dilution; xn = mol fraction of the nth substance listed. The following applies: Liquid, Chromatography, x1 = 0.

Numbers after ± are expanded uncertainties.

As for `CCC(C)=O` [butanone] + Cn1cc[n+](COCCCOC[n+]2ccn(C)c2)c1.O=S(=O)([N-]S(=O)(=O)C(F)(F)F)C(F)(F)F.O=S(=O)([N-]S(=O)(=O)C(F)(F)F)C(F)(F)F, the activity coefficient reads like this: (323.15 K) 0.36 ± 0.03; (333.15 K) 0.34 ± 0.03; (343.15 K) 0.32 ± 0.03.
Regarding `ClC(Cl)Cl` [trichloromethane] + CCCCCCCCn1cc[n+](COCCCOC[n+]2ccn(CCCCCCCC)c2C)c1C.N#C[N-]C#N.N#C[N-]C#N, the activity coefficient stood at 0.24 ± 0.03 (323.15 K), 0.26 ± 0.03 (333.15 K) and 0.27 ± 0.03 (343.15 K).
With `ClCCl` [dichloromethane] + CN(C)c1cc[n+](COCCCOC[n+]2ccc(N(C)C)cc2)cc1.O=S(=O)([N-]S(=O)(=O)C(F)(F)F)C(F)(F)F.O=S(=O)([N-]S(=O)(=O)C(F)(F)F)C(F)(F)F, the activity coefficient worked out at 0.52 ± 0.04 (323.15 K), 0.54 ± 0.04 (333.15 K) and 0.56 ± 0.04 (343.15 K).
For `CC(C)CO` [2-methyl-1-propanol] + CCCOC[n+]1ccn(C)c1.O=S(=O)([N-]S(=O)(=O)C(F)(F)F)C(F)(F)F, in that order: 2.18 ± 0.15, 1.93 ± 0.13 and 1.76 ± 0.12.
On to `CCCCCCC` [heptane] + CN(C)c1cc[n+](COCCCOC[n+]2ccc(N(C)C)cc2)cc1.O=S(=O)([N-]S(=O)(=O)C(F)(F)F)C(F)(F)F.O=S(=O)([N-]S(=O)(=O)C(F)(F)F)C(F)(F)F, for which the activity coefficient runs as follows: (323.15 K) 28.9 ± 2; (333.15 K) 23.3 ± 1.6; (343.15 K) 24.3 ± 1.7.
On the same counts, the results for `ClC(Cl)(Cl)Cl` [tetrachloromethane] + CCCOC[n+]1ccc(N(C)C)cc1.O=S(=O)([N-]S(=O)(=O)C(F)(F)F)C(F)(F)F are 2.01 ± 0.14, 2.08 ± 0.14 and 1.95 ± 0.13.
For `CCO` [ethanol] + CN(C)c1cc[n+](COCCCOC[n+]2ccc(N(C)C)cc2)cc1.O=S(=O)([N-]S(=O)(=O)C(F)(F)F)C(F)(F)F.O=S(=O)([N-]S(=O)(=O)C(F)(F)F)C(F)(F)F, the activity coefficient amounted to 1.21 ± 0.08 (323.15 K), 1.11 ± 0.07 (333.15 K) and 1.02 ± 0.06 (343.15 K).
Regarding `C#CCCCC` [1-hexyne] + CCCCCCCCn1cc[n+](COCCCOC[n+]2ccn(CCCCCCCC)c2C)c1C.O=S(=O)([N-]S(=O)(=O)C(F)(F)F)C(F)(F)F.O=S(=O)([N-]S(=O)(=O)C(F)(F)F)C(F)(F)F, the activity coefficient (323.15 K) worked out at 1.13 ± 0.07, the activity coefficient (333.15 K) was found to be 1.13 ± 0.07 and the activity coefficient (343.15 K) turned out to be 1.14 ± 0.07.
On to `CCC(C)=O` [butanone] + CCCCCCCCn1cc[n+](COCCCOC[n+]2ccn(CCCCCCCC)c2C)c1C.N#C[N-]C#N.N#C[N-]C#N, for which the activity coefficient (323.15 K) is 0.56 ± 0.04, the activity coefficient (333.15 K) was 0.5 ± 0.04 and the activity coefficient (343.15 K) is 0.46 ± 0.04.
In the case of `c1ccccc1` [benzene] + CCCOC[n+]1ccn(Cc2ccccc2)c1.F[B-](F)(F)F, the activity coefficient (323.15 K) turned out to be 2.01 ± 0.14, the activity coefficient (333.15 K) came to 2 ± 0.14 and the activity coefficient (343.15 K) came out at 1.99 ± 0.14.
On the same counts, the results for `C#CCCCC` [1-hexyne] + CCCOC[n+]1ccc(N(C)C)cc1.O=S(=O)([N-]S(=O)(=O)C(F)(F)F)C(F)(F)F are 2.51 ± 0.17, 2.5 ± 0.17 and 2.5 ± 0.17.
On the same counts, the results for `CCCCCCCCCC` [decane] + CCCOC[n+]1ccn(C)c1.O=S(=O)([N-]S(=O)(=O)C(F)(F)F)C(F)(F)F are 69.6 ± 4.8, 60.5 ± 4.2 and 53 ± 3.6.
`CC(C)OC(C)C` [diisopropyl ether] + CCCCCCCCn1cc[n+](COCCC)c1C.N#C[N-]C#N: the activity coefficient stood at 4.17 ± 0.28 (323.15 K) and 4.05 ± 0.28 (333.15 K).
In the case of `c1ccccc1` [benzene] + Cn1cc[n+](COCCCOC[n+]2ccn(C)c2)c1.O=S(=O)([N-]S(=O)(=O)C(F)(F)F)C(F)(F)F.O=S(=O)([N-]S(=O)(=O)C(F)(F)F)C(F)(F)F, the activity coefficient amounted to 0.94 ± 0.06 (323.15 K), 0.94 ± 0.06 (333.15 K) and 0.9 ± 0.06 (343.15 K).
Regarding `CCCC(C)=O` [pentan-2-one] + CCCOC[n+]1ccn(Cc2ccccc2)c1.O=S(=O)([N-]S(=O)(=O)C(F)(F)F)C(F)(F)F, the activity coefficient (323.15 K) was 0.46 ± 0.04, the activity coefficient (333.15 K) came to 0.42 ± 0.04 and the activity coefficient (343.15 K) came to 0.4 ± 0.03.
For `C=CCCCC` [hex-1-ene] + CN(C)c1cc[n+](COCCCOC[n+]2ccc(N(C)C)cc2)cc1.O=S(=O)([N-]S(=O)(=O)C(F)(F)F)C(F)(F)F.O=S(=O)([N-]S(=O)(=O)C(F)(F)F)C(F)(F)F, in that order: 9.4 ± 0.64, 8.7 ± 0.59 and 7.95 ± 0.54.
On to `CCC[N+](=O)[O-]` [1-nitropropane] + N#C[N-]C#N.N#C[N-]C#N.c1ccc(Cn2cc[n+](COCCCOC[n+]3ccn(Cc4ccccc4)c3)c2)cc1, for which the activity coefficient was 1.76 ± 0.12 (323.15 K), 1.73 ± 0.12 (333.15 K) and 1.75 ± 0.12 (343.15 K).
For `C[N+](=O)[O-]` [nitromethane] + CCCOC[n+]1ccn(Cc2ccccc2)c1.O=S(=O)([N-]S(=O)(=O)C(F)(F)F)C(F)(F)F, in that order: 0.46 ± 0.04, 0.4 ± 0.03 and 0.4 ± 0.03.
On the same counts, the results for `CCC(C)=O` [butanone] + N#C[N-]C#N.N#C[N-]C#N.c1ccc(Cn2cc[n+](COCCCOC[n+]3ccn(Cc4ccccc4)c3)c2)cc1 are 1.78 ± 0.12, 1.55 ± 0.1 and 1.41 ± 0.09.
As for `C#CCCCCC` [1-heptyne] + CCCOC[n+]1ccn(Cc2ccccc2)c1.N#C[N-]C#N, the activity coefficient reads like this: (323.15 K) 6.34 ± 0.43; (333.15 K) 6.08 ± 0.41.
`C[N+](=O)[O-]` [nitromethane] + CCCCCCCCn1cc[n+](COCCCOC[n+]2ccn(CCCCCCCC)c2C)c1C.N#C[N-]C#N.N#C[N-]C#N: the activity coefficient stood at 0.44 ± 0.04 (323.15 K), 0.43 ± 0.04 (333.15 K) and 0.42 ± 0.04 (343.15 K).
Take `CCCCCCCCCCC` [undecane] + Cn1cc[n+](COCCCOC[n+]2ccn(C)c2)c1.N#C[N-]C#N.N#C[N-]C#N: the activity coefficient is, setting by setting: (323.15 K) 938 ± 65; (333.15 K) 899 ± 62; (343.15 K) 797 ± 55.
With `ClC(Cl)(Cl)Cl` [tetrachloromethane] + CCCOC[n+]1ccn(Cc2ccccc2)c1.F[B-](F)(F)F, the activity coefficient runs as follows: (323.15 K) 5.01 ± 0.34; (333.15 K) 4.71 ± 0.32; (343.15 K) 4.58 ± 0.31.
As for `CCCCCCCC` [octane] + CCCOC[n+]1ccn(C)c1.F[B-](F)(F)F, the activity coefficient worked out at 292 ± 20 (323.15 K), 213 ± 15 (333.15 K) and 182 ± 13 (343.15 K).
Take `C[N+](=O)[O-]` [nitromethane] + CCCOC[n+]1ccn(C)c1.F[B-](F)(F)F: the activity coefficient (323.15 K) is 0.65 ± 0.04, the activity coefficient (333.15 K) was found to be 0.66 ± 0.05 and the activity coefficient (343.15 K) was 0.67 ± 0.05.
For `c1ccncc1` [pyridine] + CCCOC[n+]1ccc(N(C)C)cc1.O=S(=O)([N-]S(=O)(=O)C(F)(F)F)C(F)(F)F, in that order: 0.43 ± 0.04, 0.45 ± 0.04 and 0.46 ± 0.04.
Consider `CCCCCCCCCCC` [undecane] + CCCCCCCCn1cc[n+](COCCC)c1C.O=S(=O)([N-]S(=O)(=O)C(F)(F)F)C(F)(F)F, for which the activity coefficient was 11.2 ± 0.76 (323.15 K), 10.5 ± 0.72 (333.15 K) and 9.8 ± 0.67 (343.15 K).
For `C1COCCO1` [1,4-dioxane] + CCCOC[n+]1ccn(Cc2ccccc2)c1.N#C[N-]C#N, in that order: 0.84 ± 0.05, 0.88 ± 0.06 and 0.89 ± 0.06.
For `CCC(C)CC` [3-methylpentane] + CCCOC[n+]1ccn(Cc2ccccc2)c1.O=S(=O)([N-]S(=O)(=O)C(F)(F)F)C(F)(F)F, in that order: 8.01 ± 0.55, 6.59 ± 0.45 and 5.91 ± 0.4.
On the same counts, the results for `CCCO` [propan-1-ol] + Cn1cc[n+](COCCCOC[n+]2ccn(C)c2)c1.O=S(=O)([N-]S(=O)(=O)C(F)(F)F)C(F)(F)F.O=S(=O)([N-]S(=O)(=O)C(F)(F)F)C(F)(F)F are 1.43 ± 0.09, 1.32 ± 0.09 and 1.19 ± 0.08.
As to `Cc1cccc(C)c1` [1,3-dimethylbenzene] + Cn1cc[n+](COCCCOC[n+]2ccn(C)c2)c1.O=S(=O)([N-]S(=O)(=O)C(F)(F)F)C(F)(F)F.O=S(=O)([N-]S(=O)(=O)C(F)(F)F)C(F)(F)F, the activity coefficient reads like this: (323.15 K) 2.39 ± 0.16; (333.15 K) 2.41 ± 0.16; (343.15 K) 2.38 ± 0.16.
On the same counts, the results for `CC#N` [acetonitrile] + CCCOC[n+]1ccc(N(C)C)cc1.O=S(=O)([N-]S(=O)(=O)C(F)(F)F)C(F)(F)F are 0.51 ± 0.04, 0.52 ± 0.04 and 0.52 ± 0.04.
For `c1ccccc1` [benzene] + CCCCCCCCn1cc[n+](COCCCOC[n+]2ccn(CCCCCCCC)c2C)c1C.N#C[N-]C#N.N#C[N-]C#N, in that order: 0.7 ± 0.05, 0.71 ± 0.05 and 0.71 ± 0.05.
On the same counts, the results for `ClC(Cl)Cl` [trichloromethane] + CCCCCCCCn1cc[n+](COCCCOC[n+]2ccn(CCCCCCCC)c2C)c1C.O=S(=O)([N-]S(=O)(=O)C(F)(F)F)C(F)(F)F.O=S(=O)([N-]S(=O)(=O)C(F)(F)F)C(F)(F)F are 0.39 ± 0.03, 0.38 ± 0.03 and 0.39 ± 0.03.
On to `CCCCCCCCC` [nonane] + N#C[N-]C#N.N#C[N-]C#N.c1ccc(Cn2cc[n+](COCCCOC[n+]3ccn(Cc4ccccc4)c3)c2)cc1, for which the activity coefficient runs as follows: (323.15 K) 335 ± 23; (333.15 K) 264 ± 18; (343.15 K) 226 ± 16.
For `ClC(Cl)Cl` [trichloromethane] + CCCOC[n+]1ccc(N(C)C)cc1.O=S(=O)([N-]S(=O)(=O)C(F)(F)F)C(F)(F)F, in that order: 0.71 ± 0.05, 0.75 ± 0.05 and 0.79 ± 0.05.
